Results on four compounds are retold here after patent publication EP4467141A1, “PYRAZOLO-QUINOLINES AS SELECTIVE INHIBITORS OF GENOTOXIC STRESS-INDUCED IKK/NF- KB PATHWAYS FOR CANCER THERAPY” (Max-Delbrück-Centrum für Molekulare Medizin in der …, priority 2023, dated 2024).

Format in all cases: cell-based
Assay [1] deals with NF-κB subunit p65 phosphorylation (S536). The assay is described as follows: Western blot of p65 phosphorylation (S536) after DNA damage (irradiation or etoposide) in U2-OS cells. The following applies: 1-hour pre-treatment, irradiation (IR, 20 Gy), 90 min. The method, then:
(§1) Fig.1: Identification of inhibitors specific for DNA damage-induced NF-κB activity. (A) Flowchart representing the high-throughput chemical library screening. A screen/counter-screen strategy was used by stimulating NF-κB in U2-OS cells with etoposide (50 µM for 90 min) and hits were counter-screened with TNFα (10 ng/ml for 20 min). Cells were pre-treated with compounds (10 µM) for 1 hour before stimulation, fixed, and percent p65 nuclear translocation measured by fluorescence microscopy. IC50 values were used for final selection. (B) Comparison of mean p65 nuclear translocation following either etoposide or TNFa stimulation after treatment with each counter-screened hit compound. Values were normalized to etoposide or TNFα positive controls. Specific inhibitors (red) of DNA damage-induced NF-κB signaling were defined by setting cut-off criteria (black line). […] (C) IC50 determination for MW01 (left) and MW05 (right) of p65 nuclear translocation, following either etoposide or TNFα treatment. […] IC50 noted with a dotted line. (D) Structures of compounds selected as leads for further analysis, MW01 (5-Hydroxy-10,11-dimethoxy-9H-benzo[c]indolo[3,2,1-ij][1,5]naphthyridin-9-one) and MW05 (3-Amino-7-methoxypyrazolo[3,4-b]quinolin-1-yl)-[3-(dimethylamino)phenyl]methanone). (E) Western blot analysis (top) and quantification (bottom) of NF-κB subunit p65 phosphorylation (S536) following 1-hour pre-treatment with DMSO, MW01 (10 µM), or MW05 (10 µM), in unstimulated, after 90 min irradiation (IR, 20 Gy), or after 20 min TNFα (10 ng/mL) conditions in U2- OS cells. B-actin was used as loading control after. The p-p65 signal was first normalized to β-actin loading control per sample, then each value to DMSO-treated unstimulated to evaluate relative activation of NF-κB. Ns: not significant; ***: p<0.001.
NF-κB was stimulated by DNA damage through either 20 Gy irradiation (IR) and analyzed after 90 minutes or by 10 ng/ml TNFα and analyzed after 20 minutes unless otherwise noted.
All compounds were pre-treated for 1-hour prior to NF-κB stimulation unless otherwise noted.
(§2) Cells were collected by scraping and lysed in Baeuerle lysis buffer supplemented with Protease (Thermo Fisher Scientific, 78429) and Phosphatase (Thermo Fisher Scientific, 78420) inhibitors after the appropriate treatment and time point. Proteins were quantified by Bradford assay (Bio-Rad, 5000006) and 20-50 µg of extracted proteins were loaded on 4-20% Protein Gel (Bio-Rad, 4568096) and then transferred onto a PVDF membrane (Bio-Rad, 1620177) using Tris-Glycine buffer with 20% of methanol. Blocking was performed for 1h with 5% not-fat dry milk in PBS 1X. Immunodetection was obtained using primary and secondary antibodies reported in Key Resources Table. The membranes were analyzed by ECL (Thermo Fisher Scientific, 34580) and detected by ChemiDoc XRS+ (Bio-Rad) using ImageLab software (Bio-Rad).

For assay [2] the test system is unchanged. Description: Western blot of p65 phosphorylation (S536) after TNFα in U2-OS cells. The following applies: 1-hour pre-treatment, TNFα 10 ng/ml, 20 min. The protocol:
as §1, with “(D) Structures of compounds selected as leads for further analysis, MW01 (5-Hydroxy-10,11-dimethoxy-9H-benzo[c]indolo[3,2,1-ij][1,5]naphthyridin-9-one) and MW05 (3-Amino-7-methoxypyrazolo[3,4-b]quinolin-1-yl)-[3-(dimethylamino)phenyl]methanone).” left out, “B-actin was used as loading control after. The p-p65 signal was first normalized to β-actin loading control per sample, then each value to DMSO-treated unstimulated to evaluate relative activation of NF-κB. Ns: not significant; ***: p<0.001.” left out
NF-κB was stimulated by DNA damage through either 20 Gy irradiation (IR) and analyzed after 90 minutes or by 10 ng/ml TNFα and analyzed after 20 minutes unless otherwise noted. […]
Cells were collected by scraping and lysed in Baeuerle lysis buffer supplemented with Protease (Thermo Fisher Scientific, 78429) and Phosphatase (Thermo Fisher Scientific, 78420) inhibitors after the appropriate treatment and time point. Proteins were quantified by Bradford assay (Bio-Rad, 5000006) and 20-50 µg of extracted proteins were loaded on 4-20% Protein Gel (Bio-Rad, 4568096) and then transferred onto a PVDF membrane (Bio-Rad, 1620177) using Tris-Glycine buffer with 20% of methanol. […]
For orientation: A western blot detects proteins with antibodies after separation by electrophoresis.

For assay [3], the system named is Akt phosphorylation (S473). The assay is described as follows: Western blot of Akt phosphorylation (S473) in U2-OS cells. Conditions: 1-hour pre-treatment. The method, then: Fig.2: MW01 and MW05 are potent and selective kinase inhibitors. […] Heatmap indicates lower IC50. […] (C) Western blot analysis of NF-κB p65 phosphorylation (S536) and Akt phosphorylation (S473) following 1-hour pre-treatment with DMSO, MW01 (10 µM), MW05 (10µM), PI-103 (1 µM), NU7441 (1 µM), or MU1210 (1 µM) in unstimulated, after 90 min irradiation (IR, 20 Gy), or after 20 min TNFα (10 ng/ml) conditions in U2-OS cells. (D) mRNA expression analysis of CLK2 (top), 48 hours after transfection with siNC, CLK2 si1, or CLK2 si2. mRNA expression analysis of NFKBIA (bottom), 48 hours after transfection with siNC, CLK2 si1, orCLK2 si2. Values are normalized to unstimulated siNC expressing cells. Statistical comparison was made between experimental conditions and respective paired siNC expressing controls. ns: not significant; **, ***, ****: p<0.01, p<0.001, p<0.000. (E) Western blot analysis of U2-OS cells after transfection with siNC or CLK2 si2 unstimulated, after irradiation (IR), or after TNFα treatment. Vinculin used as loading control. (F) IC50 (nM) of all CLK isoforms for MW01 and MW05. (G) Quantification from (E) with CLK2 knockdown and p-p65 quantification (top left and top right, respectively) and CLK4 knockdown and p-p65 (bottom left and bottom right, respectively. ns: not significant; **, ***, ****: p<0.01, p<0.001, p<0.0001.
as §2, with “Immunodetection was obtained using primary and secondary antibodies reported in Key Resources Table.” left out, “(Bio-Rad). […]” for “(Bio-Rad).”

As for `Cn1cc(-c2ccc3occ(-c4ccccc4-c4ccccc4)c3n2)cn1` [MU140, reference compound], the “phosphorylation of p65 at serine 536 after DNA damage” value (“phosphorylation … after DNA damage” below) in assay [1] was “not”.

Regarding `Cn1cc(-c2ccc3occ(-c4cccc(-c5ccncc5)c4)c3n2)cn1` [MU-1210, reference compound], the “phosphorylation … after DNA damage” value in assay [1] was “reduction in p65 phosphorylation”.

On to `O=c1cc(N2CCOCC2)oc2c(-c3cccc4c3sc3ccccc34)cccc12` [NU-7441, reference compound], for which, in assay [1], the “phosphorylation … after DNA damage” value was “did not reduce p-p65”. Moreover, the “phosphorylation of p65 at serine 536, TNFα-stimulated” value in assay [2] is “did not reduce p-p65”.

`Oc1cccc(-c2nc(N3CCOCC3)c3oc4ncccc4c3n2)c1` [PI-103, reference compound]: the “reduction of p-Akt” value in assay [3] is reported as “complete reduction”.
